According to ChEMBL document CHEMBL1156858, “Comparative analysis of DNA alkylation by conjugates between pyrrole-imidazole hairpin polyamides and chlorambucil or seco-CBI” (2010):
Active and inactive are the calls of the source. The calls are words filed in the database; no cut-off is given here.

Columns and labels:
Nucleic Acid [1] = assay: Induction of DNA alkylation at 3'-side adenines in 5'-AGCAGTCAAAAA-3' site of 5'-Texas Red-modified 209bp DNA fragment at 10 nm to 1 uM after 18 hrs at 23 degC by high-resolution denaturing PAGE; type: nucleic-acid assay
Nucleic Acid [2] = assay: Induction of DNA alkylation at 5'-TCTTTTTAA-3' site of 5'-Texas Red-modified 209bp DNA fragment at 10 nm to 1 uM after 18 hrs at 23 degC by high-resolution denaturing PAGE; type: nucleic-acid assay
K562 = assay: Growth inhibition of human K562 cells after 48 hrs by WST8 dye reduction assay; type: functional; conditions: K562, 48 h
Nucleic Acid [3] = assay: Induction of DNA alkylation at 5'-AAAAAAGACTGCT-3' site of 5'-Texas Red-modified 209bp DNA fragment at 10 nm to 1 uM after 18 hrs at 23 degC by high-resolution denaturing PAGE; type: nucleic-acid assay
Nucleic Acid [4] = assay: Induction of DNA alkylation at 5' side in 5'-AGCAGTC-3' site of 5'-Texas Red-modified 209bp DNA fragment at 10 nm to 1 uM after 18 hrs at 23 degC by high-resolution denaturing PAGE; type: nucleic-acid assay

For `CC(=O)Nc1cn(C)c(C(=O)Nc2cc(C(=O)Nc3cc(C(=O)NCCC(=O)Nc4cn(C)c(C(=O)Nc5cc(C(=O)NCCCC(=O)Nc6cn(C)c(C(=O)Nc7cc(C(=O)NCCC(=O)Nc8cn(C)c(C(=O)Nc9ccc%10[nH]c(C(=O)N%11CC(CCl)c%12c%11cc(O)c%11ccccc%12%11)cc%10c9)n8)n(C)c7)n6)n(C)c5)n4)n(C)c3)n(C)c2)n1` (configuration not stated), the Activity (Nucleic Acid [1]) was “Active”, the Activity (Nucleic Acid [2]) was “Active” and the GI50 (K562) was 60 nM.

In the case of `CN(C)CCCNC(=O)c1cc(NC(=O)c2cc(NC(=O)c3nc(NC(=O)CCNC(=O)c4cc(NC(=O)c5ncc(NC(=O)CCCNC(=O)c6cc(NC(=O)c7nc(NC(=O)CCNC(=O)c8cc(NC(=O)c9cc(NC(=O)c%10nc(NC(=O)CCCc%11ccc(N(CCCl)CCCl)cc%11)cn%10C)cn9C)cn8C)cn7C)cn6C)n5C)cn4C)cn3C)cn2C)cn1C`, the Activity (Nucleic Acid [1]) is reported as “Active”, the Activity (Nucleic Acid [3]) is reported as “inactive” and the Activity (Nucleic Acid [2]) is reported as “Active”. The GI50 (K562) was > 2500 nM.

In the case of `CC(=O)Nc1cn(C)c(C(=O)Nc2cc(C(=O)Nc3cc(C(=O)NCCC(=O)Nc4cn(C)c(C(=O)Nc5cc(C(=O)N[C@H](CCNC(=O)CCCc6ccc(N(CCCl)CCCl)cc6)C(=O)Nc6cnc(C(=O)Nc7cc(C(=O)NCCC(=O)Nc8cn(C)c(C(=O)Nc9cc(C(=O)Nc%10cc(C(=O)NCCCN(C)C)n(C)c%10)n(C)c9)n8)n(C)c7)n6C)n(C)c5)n4)n(C)c3)n(C)c2)n1`, the Activity (Nucleic Acid [1]) is reported as “Active”, the Activity (Nucleic Acid [3]) is reported as “inactive” and the Activity (Nucleic Acid [4]) is reported as “Active”. The GI50 (K562) was > 10000 nM.

With `CN(C)CCCNC(=O)c1cc(NC(=O)c2cc(NC(=O)c3nc(NC(=O)CCNC(=O)c4cc(NC(=O)c5ncc(NC(=O)CCCNC(=O)c6cc(NC(=O)c7nc(NC(=O)CCNC(=O)c8cc(NC(=O)c9cc(NC(=O)c%10nc(NC(=O)CCNC(=O)CCCc%11ccc(N(CCCl)CCCl)cc%11)cn%10C)cn9C)cn8C)cn7C)cn6C)n5C)cn4C)cn3C)cn2C)cn1C` the Activity (Nucleic Acid [1]) was “Active”, the Activity (Nucleic Acid [3]) was “inactive” and the GI50 (K562) was 8000 nM.

In the case of `CC(=O)Nc1cn(C)c(C(=O)Nc2cc(C(=O)Nc3cc(C(=O)NCCC(=O)Nc4cn(C)c(C(=O)Nc5cc(C(=O)NCCCC(=O)Nc6cnc(C(=O)Nc7cc(C(=O)NCCC(=O)Nc8cn(C)c(C(=O)Nc9cc(C(=O)Nc%10cc(C(=O)NCCCN(C)CCCNC(=O)CCCc%11ccc(N(CCCl)CCCl)cc%11)n(C)c%10)n(C)c9)n8)n(C)c7)n6C)n(C)c5)n4)n(C)c3)n(C)c2)n1`, the Activity (Nucleic Acid [1]) is reported as “Active”, the Activity (Nucleic Acid [3]) is reported as “Active” and the GI50 (K562) is reported as > 2500 nM.
